Experimental data published in patent US20040053913A1, “Process for preparing 6-alkylidene penem derivatives” (priority 2002, published 2004).
Where a name gives a salt, the structure may show the parent alone.

Tests used:
[1] = target: class A β-lactamases TEM-1 from E. coli (Escherichia coli, UniProt P62593); test: β-Lactamase inhibition, spectrophotometric nitrocefin hydrolysis assay, TEM-1; assay type: biochemical; conditions: enzyme 4.3 nM; 10 minutes preincubation at 25° C.; nitrocefin 50 μg/ml; 50 mM PO4, pH 7.0
Experimental: (§1) IC50 Determination for the Penem Inhibitor
(§2) β-Lactamase inhibitory activity of the penem inhibitors was determined spectrophotometrically as described by Bush et al., [Bush, K., Macalintal, C., Rasmussen, B. A., Lee, V. and Yang, Y. Antimicrobial Agents and Chemotherapy 1993, 37, 851]. Homogeneously purified class A β-lactamases TEM-1 from E. coli and Imi-1 from Enterobacter cloacae, class B enzyme CcrA from Bacteroides fragilis and class C enzyme AmpC from Enterobacter cloaca were employed in the assay. The enzyme concentrations for TEM-1, Imi-1, CcrA and AmpC were 4.3, 7.1, 1.2 and 2.1 nM, respectively. A wide range of inhibitor concentrations were prepared in 50 mM PO4, pH 7.0 to include the possible IC50 values. The substrate used to initiate the enzyme reaction was nitrocefin at 50 μg/ml in the same buffer as the inhibitor. Initially the enzyme and inhibitor (20 μl each) were preincubated for 10 minutes at 25° C. prior to the addition of 160 μl volume of nitrocefin. Initial rates of hydrolysis were monitored for 5 minutes at 495 nm using a Molecular Devices Spectra Max 250 with kinetic protocol of SoftMax Program. Readings from the Spectra Max 250 were exported and transferred to Microsoft Excel. The percent of inhibition of each inhibitor concentration was calculated based on the control enzyme activity. The inhibitor concentration that caused a 50% reduction in the enzymatic activity (IC50) was determined graphically.

[2] = target: class C enzyme AmpC from Enterobacter cloaca (Enterobacter cloacae, UniProt P05364); test: β-Lactamase inhibition, spectrophotometric nitrocefin hydrolysis assay, AmpC; assay type: biochemical; conditions: enzyme 2.1 nM; 10 minutes preincubation at 25° C.; nitrocefin 50 μg/ml; 50 mM PO4, pH 7.0; read-out: IC50 (nM) Amp-C
Experimental: as §1, §2

[3] = target: class A β-lactamase Imi-1 from Enterobacter cloacae (Enterobacter cloacae, UniProt Q46991); test: β-Lactamase inhibition, spectrophotometric nitrocefin hydrolysis assay, Imi-1; assay type: biochemical; conditions: enzyme 7.1 nM; 10 minutes preincubation at 25° C.; nitrocefin 50 μg/ml; 50 mM PO4, pH 7.0
Experimental: as §1, §2

[4] = target: class B enzyme CcrA from Bacteroides fragilis (Bacteroides fragilis, UniProt P25910); test: β-Lactamase inhibition, spectrophotometric nitrocefin hydrolysis assay, CcrA; assay type: biochemical; conditions: enzyme 1.2 nM; 10 minutes preincubation at 25° C.; nitrocefin 50 μg/ml; 50 mM PO4, pH 7.0; read-out: IC50 (nM) Ccr-A
Experimental: as §1, §2

[5] = Comparative thermal stability in a solid state, residual ratio checked by HPLC; assay type: physicochemical; conditions: for Residual Ratio (%): Temp. 40° C. in a solid state, HPLC
Excerpt: One important aspect of the present invention relates to the use of stable bromopenem intermediate 16. The stability of the intermediate is relevant to the aldol condensation step where the decomposition is minimized [as well as to the shelf life stability]. In this invention the key intermediate 16, where R=para-Nitrobenzyl group is a stable and a crystalline intermediate. […] (Table 1) This remarkable stability of intermediate 16 enhances the shelf-life time of the compound as well as the scale-up feasibility. As mentioned above, protection of carboxyl group with para-Nitrobenzyl group reduces the number of steps in the present process of preparing the final compound of structure I. The crystalline nature of the intermediate was established by X-ray diffraction studies.
Column: Inertsil SIL 100-5 4.6×150 mm (GL Science Inc.)
Mobile phase; Ethylacetae: n-hexane (10:35 vv)
Wave length: […]; Flow rate: 1.0 ml/min @ Room temperature.

Chain of class A β-lactamases TEM-1 from E. coli (P62593 24-286 limits assumed): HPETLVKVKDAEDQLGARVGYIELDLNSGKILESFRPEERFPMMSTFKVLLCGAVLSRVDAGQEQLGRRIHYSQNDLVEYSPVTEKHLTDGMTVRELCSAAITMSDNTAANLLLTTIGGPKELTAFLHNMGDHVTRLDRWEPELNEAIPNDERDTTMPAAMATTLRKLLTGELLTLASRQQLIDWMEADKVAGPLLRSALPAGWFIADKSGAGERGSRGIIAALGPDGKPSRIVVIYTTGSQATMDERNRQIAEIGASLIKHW
Chain of class B enzyme CcrA from Bacteroides fragilis (P25910 19-249): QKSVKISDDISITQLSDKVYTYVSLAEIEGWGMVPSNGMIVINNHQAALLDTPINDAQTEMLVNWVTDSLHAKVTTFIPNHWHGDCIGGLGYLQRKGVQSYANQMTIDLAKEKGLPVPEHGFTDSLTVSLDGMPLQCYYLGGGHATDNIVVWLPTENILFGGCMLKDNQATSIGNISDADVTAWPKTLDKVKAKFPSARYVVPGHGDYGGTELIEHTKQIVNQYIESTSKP
Chain of class A β-lactamase Imi-1 from Enterobacter cloacae (Q46991 entry or part of it): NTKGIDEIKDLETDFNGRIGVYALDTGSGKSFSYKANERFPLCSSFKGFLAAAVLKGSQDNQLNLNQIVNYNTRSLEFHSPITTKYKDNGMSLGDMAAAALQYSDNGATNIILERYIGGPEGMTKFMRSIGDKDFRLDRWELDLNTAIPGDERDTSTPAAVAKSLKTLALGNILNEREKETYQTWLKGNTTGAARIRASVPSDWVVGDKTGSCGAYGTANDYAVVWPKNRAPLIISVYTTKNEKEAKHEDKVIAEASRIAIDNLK
Chain of class C enzyme AmpC from Enterobacter cloaca (P05364 21-381): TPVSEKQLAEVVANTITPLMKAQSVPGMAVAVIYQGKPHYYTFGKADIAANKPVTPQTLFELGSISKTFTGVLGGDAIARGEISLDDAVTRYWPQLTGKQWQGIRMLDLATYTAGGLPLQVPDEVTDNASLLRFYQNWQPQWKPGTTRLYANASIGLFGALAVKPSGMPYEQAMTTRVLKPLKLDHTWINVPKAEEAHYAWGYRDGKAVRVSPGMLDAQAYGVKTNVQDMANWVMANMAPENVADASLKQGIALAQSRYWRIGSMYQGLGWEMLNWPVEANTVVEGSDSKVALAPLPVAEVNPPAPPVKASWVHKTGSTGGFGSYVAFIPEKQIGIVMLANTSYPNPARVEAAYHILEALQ

Compound	IC50 [1]	IC50 [2]	IC50 [3]	IC50 [4]	Residual Ratio (%) ([5]; Day 0)	Residual Ratio (%) ([5]; Day 1)	Residual Ratio (%) ([5]; Day 2)	Residual Ratio (%) ([5]; Day 4)	Residual Ratio (%) ([5]; Day 7)	Residual Ratio (%) ([5]; Day 14)	comparative thermal stability (in words) ([5]; intermediate 16 versus intermediate Q)
(5R), (6Z)-6-(1-Methyl-2-thiazol-2-yl-1H-imidazol-4-ylmethylene)-7-oxo-4-thia-1-aza-bicyclo[3.2.0]hept-2-ene-2-carboxylic Acid Sodium Salt [Example 5]	5.2 nM	5.6 nM	68 nM	260 nM	–	–	–	–	–	–	–
O=C(O)C1=CS[C@@H]2/C(=C\c3c[nH]c(-c4ccccc4)n3)C(=O)N12 [Example 6, (5R), (6Z)-6-(2-phenyl-1H-imidazol-4-ylmethylene)-7-oxo-4-thia-1-aza-bicyclo[3.2.0]hept-2-ene-2-carboxylic Acid]	5.6 nM	2.9 nM	11 nM	220 nM	–	–	–	–	–	–	–
COc1ccc(COC(=O)C2=CS[C@@H]3[C@@H](Br)C(=O)N23)cc1 [Formula Q, reference compound]	–	–	–	–	100.0%	99.7%	95.3%	72.9%	69.8%	–	–
O=C(O)C1=CS[C@@H]2/C(=C\c3c[nH]c(-c4nccs4)n3)C(=O)N12 [Example 4, (5R), (6Z)-6-(2-thiazol-2-yl-1H-imidazol-4-ylmethylene)-7-oxo-4-thia-1-aza-bicyclo[3.2.0]hept-2-ene-2-carboxylic Acid Sodium Salt]	0.4 nM	2.3 nM	5.8 nM	230 nM	–	–	–	–	–	–	–
O=C(OCc1ccc([N+](=O)[O-])cc1)C1=CS[C@@H]2[C@@H](Br)C(=O)N12 [Formula 16, 4-nitrobenzyl (5R,6S)-6-bromopenem-3-carboxylate]	–	–	–	–	100.0%	100.0%	100.0%	100.0%	98.7%	98.4%	–
(5R), (6Z)-6-(3,1′-Dimethyl-3H,1′H-[2,4′]biimidazolyl-4-ylmethylene)-7-oxo-4-thia-1-aza-bicyclo[3.2.0]hept-2-ene-2-carboxylic Acid Sodium Salt [Example 2]	4.1 nM	2.1 nM	6 nM	250 nM	–	–	–	–	–	–	–
O=C(O)C1=CS[C@@H]2/C(=C\c3c[nH]c(Cc4ccccc4)n3)C(=O)N12 [Example 3, (5R), (6Z)-6-(2-Benzyl-1H-imidazol-4-ylmethylene)-7-oxo-4-thia-1-aza-bicyclo[3.2.0]hept-2-ene-2-carboxylic Acid Sodium Salt]	1.2 nM	0.8 nM	1300 nM	190 nM	–	–	–	–	–	–	–
O=C(OCc1ccc([N+](=O)[O-])cc1)C1=CS[C@@H]2[C@@H](Br)C(=O)N12 [Example 16]	–	–	–	–	–	–	–	–	–	–	more stable than the intermediate Q
